Data from US6737383B1, “Herbicidal oxadiazolidines” (priority 1999, dated 2004).

How the values were obtained:
wild oat = assay: Test B pre/postemergence wild oat; type: in vivo, Avena fatua; conditions: for Plant response rating, Wild oats: scale of 0 to 10 where 0 is no effect and 10 is complete control
How it was run: (§1)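 Test chemicals in a non-phytotoxic solvent mixture with surfactant were sprayed preemergence onto planted seeds and postemergence onto plants 2 to 18 cm tall (1- to 4-leaf stage). After twelve to sixteen days in a greenhouse, injury was visually rated against untreated controls from 0 (no effect) to 10 (complete control).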

purple nutsedge = assay: Test B pre/postemergence purple nutsedge; type: in vivo, Cyperus rotundus; conditions: for Plant response rating, Nutsedge: scale of 0 to 10 where 0 is no effect and 10 is complete control
How it was run: as §1

soybean = assay: Test B pre/postemergence soybean; type: in vivo, Glycine max; conditions: for Plant response rating, Soybean: scale of 0 to 10 where 0 is no effect and 10 is complete control
How it was run: as §1

crabgrass = assay: Test B pre/postemergence crabgrass; type: in vivo, Digitaria sanguinalis
How it was run: as §1

pigweed = assay: Test B pre/postemergence pigweed; type: in vivo, Amaranthus retroflexus; conditions: for Plant response rating, Redroot pigweed: scale of 0 to 10 where 0 is no effect and 10 is complete control
How it was run: as §1

rape = assay: Test B pre/postemergence rape; type: in vivo, Brassica napus; conditions: for Plant response rating, Rape: scale of 0 to 10 where 0 is no effect and 10 is complete control
How it was run: as §1

bamyardgrass = assay: Test B flood test barnyardgrass; type: in vivo, Echinochloa crus-galli
How it was run: (§2)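 Each value is a visual injury score relative to controls, with 10 meaning complete control and 0 no effect. Evaluation took place twelve to sixteen days after the 2-leaf-stage plants were treated and kept in the greenhouse.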

surinam grass = assay: Test B pre/postemergence surinam grass; type: in vivo, Brachiaria decumbens
How it was run: as §1

smallflower flatsedge = assay: Test B flood test smallflower flatsedge; type: in vivo, Cyperus difformis
How it was run: as §2

sugar beet = assay: Test B pre/postemergence sugar beet; type: in vivo, Beta vulgaris; conditions: for Plant response rating, Sugarbeets: scale of 0 to 10 where 0 is no effect and 10 is complete control
How it was run: as §1

corn = assay: Test B pre/postemergence corn; type: in vivo, Zea mays
How it was run: as §1

bedstraw = assay: Test B pre/postemergence bedstraw; type: in vivo, Galium aparine; conditions: Preemergence, scale of 0 to 10 where 0 is no effect and 10 is complete control
How it was run: as §1

wheat = assay: Test B pre/postemergence wheat; type: in vivo, Triticum aestivum; conditions: for Plant response rating, Wheat: scale of 0 to 10 where 0 is no effect and 10 is complete control
How it was run: as §1

velvetleaf = assay: Test B pre/postemergence velvetleaf; type: in vivo, Abutilon theophrasti; conditions: for Plant response rating, Velvetleaf: scale of 0 to 10 where 0 is no effect and 10 is complete control
How it was run: as §1

cocklebur = assay: Test B pre/postemergence cocklebur; type: in vivo, Xanthium strumarium
How it was run: as §1

blackgrass = assay: Test B pre/postemergence blackgrass; type: in vivo, Alopecurus myosuroides
How it was run: as §1

[1] = Postemergence, Rate 250 g/ha, scale 0 to 10
[2] = Preemergence, Rate 250 g/ha, scale 0 to 10, 0 is no effect, 10 is complete control
[3] = Preemergence, Rate 500 g/ha, scale 0 to 10, 0 is no effect, 10 is complete control
[4] = Rate 62 g/ha, Postemergence, scale 0 to 10, 0 no effect, 10 complete control
[5] = Rate 125 g/ha, Postemergence, scale 0 to 10, 0 is no effect, 10 is complete control
[6] = Postemergence, Rate 500 g/ha, scale of 0 to 10 where 0 is no effect and 10 is complete control
[7] = Preemergence, Rate 62 g/ha, scale of 0 to 10 where 0 is no effect and 10 is complete control
[8] = Preemergence, Rate 125 g/ha, scale of 0 to 10 where 0 is no effect and 10 is complete control
[9] = Rate 62 g/ha, flood test species, Pre-emergence, visual evaluation after twelve to sixteen days
[10] = Rate 125 g/ha, under heading Pre-emergence, flood test species, visual evaluation after twelve to sixteen days
[11] = Rate 250 g/ha, Pre-emergence (flood test species), scale 0 to 10, 0 is no effect, 10 is complete control
[12] = Rate 500 g/ha, Pre-emergence, flood test species, scale 0 to 10 (0 no effect, 10 complete control)

SMILES: CC(C)N(C(=O)n1oc(=O)n(CC#N)c1=O)c1ccc(Cl)cc1 [Compound 476]
- Wild oats plant response rating (wild oat; [1]): 0
- Plant response rating, Wild oats (wild oat; Preemergence, Rate 62 g/ha): 0
- Plant response rating, Wild oats (wild oat; Preemergence, Rate 125 g/ha): 0
- Wild oats plant response rating (wild oat; [2]): 0
- Wild oats plant response rating (wild oat; [3]): 0
- Wild oats plant response rating (wild oat; [4]): 0
- Wild oats plant response rating (wild oat; [5]): 0
- Nutsedge plant response rating (purple nutsedge; [1]): 0
- Plant response rating, Nutsedge (purple nutsedge; Preemergence, Rate 62 g/ha): 0
- Plant response rating, Nutsedge (purple nutsedge; Preemergence, Rate 125 g/ha): 0
- Nutsedge plant response rating (purple nutsedge; [2]): 0
- Nutsedge plant response rating (purple nutsedge; [3]): 0
- Nutsedge plant response rating (purple nutsedge; [4]): 0
- Nutsedge plant response rating (purple nutsedge; [5]): 0
- Soybean plant response rating (soybean; [1]): 2
- Plant response rating, Soybean (soybean; Preemergence, Rate 62 g/ha): 0
- Plant response rating, Soybean (soybean; Preemergence, Rate 125 g/ha): 0
- Soybean plant response rating (soybean; [2]): 0
- Soybean plant response rating (soybean; [3]): 0
- Soybean plant response rating (soybean; [4]): 0
- Soybean plant response rating (soybean; [5]): 1
- Crabgrass plant response rating (crabgrass; [1]): 0
- Crabgrass plant response rating (crabgrass; [6]): 0
- Plant response rating, Crabgrass (crabgrass; [7]): 0
- Plant response rating, Crabgrass (crabgrass; [8]): 0
- Crabgrass plant response rating (crabgrass; [2]): 0
- Crabgrass plant response rating (crabgrass; [3]): 0
- Crabgrass plant response rating (crabgrass; [4]): 0
- Crabgrass plant response rating (crabgrass; [5]): 0
- Redroot pigweed plant response rating (pigweed; [1]): 0
- Plant response rating, Redroot pigweed (pigweed; Preemergence, Rate 62 g/ha): 0
- Plant response rating, Redroot pigweed (pigweed; Preemergence, Rate 125 g/ha): 0
- Redroot pigweed plant response rating (pigweed; [2]): 2
- Redroot pigweed plant response rating (pigweed; [3]): 4
- Redroot pigweed plant response rating (pigweed; [4]): 0
- Redroot pigweed plant response rating (pigweed; [5]): 0
- Rape plant response rating (rape; [1]): 0
- Plant response rating, Rape (rape; Preemergence, Rate 62 g/ha): 0
- Plant response rating, Rape (rape; Preemergence, Rate 125 g/ha): 0
- Rape plant response rating (rape; [2]): 0
- Rape plant response rating (rape; [3]): 0
- Rape plant response rating (rape; [4]): 0
- Rape plant response rating (rape; [5]): 0
- Plant response rating, Barnyardgrass (0 to 10 scale, 0 is no effect, 10 is complete control) (bamyardgrass; [9]): 0
- Barnyardgrass plant response rating (0 to 10 scale, 0 is no effect, 10 is complete control) (bamyardgrass; [10]): 0
- Barnyardgrass plant response rating (bamyardgrass; [11]): 0
- Barnyardgrass plant response rating (bamyardgrass; [12]): 0
- B. signalgrass plant response rating (surinam grass; Postemergence, Rate 250 g/ha, scale 0 to 10, 0 no effect, 10 complete control): 0
- B. signalgrass plant response rating (surinam grass; [6]): 0
- Plant response rating, B. signalgrass (surinam grass; [7]): 0
- Plant response rating, B. signalgrass (surinam grass; [8]): 0
- B. signalgrass plant response rating (surinam grass; [2]): 0
- B. signalgrass plant response rating (surinam grass; [3]): 0
- B. signalgrass plant response rating (surinam grass; [4]): 0
- B. signalgrass plant response rating (surinam grass; [5]): 0
- Plant response rating, S. Flatsedge (0 to 10 scale, 0 is no effect, 10 is complete control) (smallflower flatsedge; [9]): 0
- S. Flatsedge plant response rating (0 to 10 scale, 0 is no effect, 10 is complete control) (smallflower flatsedge; [10]): 0
- S. Flatsedge plant response rating (smallflower flatsedge; [11]): 0
- S. Flatsedge plant response rating (smallflower flatsedge; [12]): 0
- Sugarbeets plant response rating (sugar beet; [1]): 0
- Plant response rating, Sugarbeets (sugar beet; Preemergence, Rate 62 g/ha): 0
- Plant response rating, Sugarbeets (sugar beet; Preemergence, Rate 125 g/ha): 0
- Sugarbeets plant response rating (sugar beet; [2]): 0
- Sugarbeets plant response rating (sugar beet; [3]): 0
- Sugarbeets plant response rating (sugar beet; [4]): 0
- Sugarbeets plant response rating (sugar beet; [5]): 0
- Corn plant response rating (corn; [1]): 0
- Corn plant response rating (corn; [6]): 0
- Plant response rating, Corn (corn; [7]): 0
- Plant response rating, Corn (corn; [8]): 0
- Corn plant response rating (corn; [2]): 0
- Corn plant response rating (corn; [3]): 0
- Corn plant response rating (corn; [4]): 0
- Corn plant response rating (corn; [5]): 0
- Plant response rating, Bedstraw (bedstraw; Rate 62 g/ha): 0
- Plant response rating, Bedstraw (bedstraw; Rate 125 g/ha): 0
- Wheat plant response rating (wheat; [1]): 0
- Plant response rating, Wheat (wheat; Preemergence, Rate 62 g/ha): 0
- Plant response rating, Wheat (wheat; Preemergence, Rate 125 g/ha): 0
- Wheat plant response rating (wheat; [2]): 0
- Wheat plant response rating (wheat; [3]): 0
- Wheat plant response rating (wheat; [4]): 0
- Wheat plant response rating (wheat; [5]): 0
- Velvetleaf plant response rating (velvetleaf; [1]): 2
- Plant response rating, Velvetleaf (velvetleaf; Preemergence, Rate 62 g/ha): 0
- Plant response rating, Velvetleaf (velvetleaf; Preemergence, Rate 125 g/ha): 0
- Velvetleaf plant response rating (velvetleaf; [2]): 0
- Velvetleaf plant response rating (velvetleaf; [3]): 0
- Velvetleaf plant response rating (velvetleaf; [4]): 0
- Velvetleaf plant response rating (velvetleaf; [5]): 1
- Cocklebur plant response rating (cocklebur; [1]): 0
- Cocklebur plant response rating (cocklebur; [6]): 0
- Plant response rating, Cocklebur (cocklebur; [7]): 0
- Plant response rating, Cocklebur (cocklebur; [8]): 0
- Cocklebur plant response rating (cocklebur; [2]): 0
- Cocklebur plant response rating (cocklebur; [3]): 0
- Cocklebur plant response rating (cocklebur; [4]): 0
- Cocklebur plant response rating (cocklebur; [5]): 0
- Blackgrass plant response rating (blackgrass; [1]): 0
- Blackgrass plant response rating (blackgrass; [6]): 2
- Plant response rating, Blackgrass (blackgrass; [7]): 0
- Plant response rating, Blackgrass (blackgrass; [8]): 0
- Blackgrass plant response rating (blackgrass; [2]): 0
- Blackgrass plant response rating (blackgrass; [3]): 0
- Blackgrass plant response rating (blackgrass; [4]): 0
- Blackgrass plant response rating (blackgrass; [5]): 0
